Measured values taken from patent US11643421B2, “Process for the preparation of tricyclic PI3K inhibitor compounds and methods for using the same for the treatment of cancer” (priority 2015, dated 2023).
Where two headings read alike, the source gives them in different places.

What was measured:
[1] = system: pAKT; test: pAKT/tAKT in normal brain tissue; type: in vivo, female CD-1 mice
Protocol: The effect of compound IIIat on pAKT in normal brain tissue, expressed as the ratio of phosphorylated AKT (pAKT) to total AKT (tAKT) was evaluated. […] In the evaluation, female CD-1 mice were administered a single PO dose of the indicated compound. Brains and plasma were collected at the indicated time post-dose, from 3 animals at each time point. Individual brains were split in half for PD analysis and compound concentration measurement. The samples were stored at −70° C. and analyzed for total concentration. For PD analysis, cell extraction buffer (Invitrogen, Camarillo, Calif.) containing 10 mM Tris pH 7.4, 100 mM NaCl, 1 mM EDTA, 1 mM EGTA, 1 mM NaF, 20 mM Na4P2O7, 2 mM Na3VO4, 1% Triton X-100, 10% glycerol, 0.1% SDS, and 0.5% deoxycholate was supplemented with phosphatase, protease inhibitors (Sigma, St. Louis, Mo.) and 1 mM PMSF and added to frozen brain biopsies. […] Protein concentration was determined using BCA protein assay (Pierce, Rockford, Ill.). […] Licor Odyssey Infrared detection system (Licor, Lincoln, Nebr.) was used to assess and quantify protein expression. PI3K pathway markers were evaluated by immunoblotting using antibodies against pAkt^ser473 and total Akt (Invitrogen, Camarillo, Calif. and Cell Signaling, Danvers, Mass.). Inhibition of pAkt (%) was calculated by comparing pAkt signal with that measured in untreated mice.

[2] = Phase I dose-escalation study, maximum tolerable dose; conditions: orally once daily in cycles of 28 days
Protocol: Plasma samples for pharmacokinetic (“PK”) analysis were collected on day 1 and day 8 or day 15 of cycle 1. Fluorodeoxyglucose positron emission tomography (“FDG-PET”) was performed at baseline and on-treatment.

[3] = biological target: mouse P-gp (mdr1a) (Mus musculus, UniProt P21447); test: Transport assay in Mdr1a-LLC-PK1 cell monolayers; type: in vitro ADME; conditions: Mdr1a-LLC-PK, 2-hour incubation
Sequence of mouse P-gp (mdr1a) (P21447 whole entry): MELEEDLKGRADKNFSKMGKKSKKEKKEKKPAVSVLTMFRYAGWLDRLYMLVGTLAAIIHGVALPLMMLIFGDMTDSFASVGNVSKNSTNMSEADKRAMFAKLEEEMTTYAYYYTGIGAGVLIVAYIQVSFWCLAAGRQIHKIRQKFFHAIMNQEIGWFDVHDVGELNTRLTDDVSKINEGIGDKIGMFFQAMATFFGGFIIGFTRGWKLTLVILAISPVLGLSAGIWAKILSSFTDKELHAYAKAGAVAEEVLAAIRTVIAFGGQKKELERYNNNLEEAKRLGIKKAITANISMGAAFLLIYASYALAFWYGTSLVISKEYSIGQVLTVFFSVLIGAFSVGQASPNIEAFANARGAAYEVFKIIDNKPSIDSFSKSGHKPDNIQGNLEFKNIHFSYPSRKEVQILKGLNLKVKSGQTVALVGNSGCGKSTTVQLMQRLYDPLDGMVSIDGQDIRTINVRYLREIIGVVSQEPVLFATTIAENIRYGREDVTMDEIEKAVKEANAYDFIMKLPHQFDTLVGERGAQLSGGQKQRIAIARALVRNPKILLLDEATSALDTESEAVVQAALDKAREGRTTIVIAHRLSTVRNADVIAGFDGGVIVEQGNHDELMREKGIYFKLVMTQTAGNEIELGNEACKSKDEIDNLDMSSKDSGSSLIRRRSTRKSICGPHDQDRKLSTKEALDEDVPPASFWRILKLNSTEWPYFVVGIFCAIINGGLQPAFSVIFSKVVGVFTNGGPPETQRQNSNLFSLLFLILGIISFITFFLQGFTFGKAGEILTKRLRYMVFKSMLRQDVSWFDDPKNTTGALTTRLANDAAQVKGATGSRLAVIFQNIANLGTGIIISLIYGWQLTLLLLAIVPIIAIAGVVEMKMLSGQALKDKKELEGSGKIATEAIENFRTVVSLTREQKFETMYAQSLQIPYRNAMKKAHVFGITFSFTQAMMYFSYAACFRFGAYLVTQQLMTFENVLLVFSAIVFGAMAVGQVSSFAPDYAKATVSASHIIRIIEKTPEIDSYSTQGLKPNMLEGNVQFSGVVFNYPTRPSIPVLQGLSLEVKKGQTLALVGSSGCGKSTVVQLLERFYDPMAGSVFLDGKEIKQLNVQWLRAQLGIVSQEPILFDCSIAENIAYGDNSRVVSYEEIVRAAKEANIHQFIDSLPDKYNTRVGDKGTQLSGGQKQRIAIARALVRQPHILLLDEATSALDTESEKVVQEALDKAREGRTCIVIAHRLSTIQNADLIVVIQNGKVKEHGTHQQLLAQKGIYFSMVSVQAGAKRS
Protocol: MDR1-MDCKI cells were licensed from the NCI (National Cancer Institute, Bethesda, Md.) and Bcrp1-MDCKII, BCRP-MDCKII and Mdr1a-LLC-PK1 cells were obtained from the Netherlands Cancer Institute (Amsterdam. The Netherlands). […] The compound was dissolved in transport buffer consisting of Hank's balanced salt solution (HBSS) with 10 mM HEPES (Invitrogen Corporation, Grand Island, N.Y.). Lucifer Yellow (Sigma-Aldrich, St. Louis, Mo.) was used as the paracellular and monolayer integrity marker. […] The efflux ratio (ER) was calculated (Papp, B-A/Papp, A-B).

[4] = Plasma and brain concentrations in GS2 tumor-bearing mice; type: in vivo; conditions: mouse, 15 mg/kg PO; for concentration at 2 h: 2 h post-dose; for concentration at 8 h: 8 h post-dose
[5] = non-tumored half of the brain, read-out: Brain

For `CC1(C)OCCn2c1nc1c(N3CCOCC3)nc(-c3cnc(N)nc3)nc12` [GDC-0084, 5-(6,6-dimethyl-4-morpholino-8,9-dihydro-6H-[1,4]oxazino[3,4-e]purin-2-yl)pyrimidin-2-amine], the “pAKT in normal mouse brain tissue” value ([1]; 3 mg/kg or 10 mg/kg orally, 1 h post-dose) was “inhibited”, the “pAKT in normal mouse brain tissue” value ([1]; 3 mg/kg orally, 4 hours post-dose) was “no longer resulted in inhibition of pAKT” and the MTD [2] was 45 mg. The Papp B→A at 2 h, 5 μM [3] was 19.4 ± 1.3 ×10⁻⁶ cm/s, the concentration at 2 h ([4]; plasma, read-out: Plasma) was 3.64 ± 2.05 µM and the concentration at 8 h ([4]; plasma, read-out: Plasma) was 2.01 ± 1.19 µM. The concentration at 2 h [4, 5] was 5.51 ± 1.58 µM and the concentration at 8 h [4, 5] was 2.48 ± 1.25 µM.
